Results from publication doi:10.64898/2025.12.09.693205v1 (biorxiv, 2025).

Target: T1, UBE2N (Homo sapiens, UniProt P61088)
T1 sequence (P61088 1-152): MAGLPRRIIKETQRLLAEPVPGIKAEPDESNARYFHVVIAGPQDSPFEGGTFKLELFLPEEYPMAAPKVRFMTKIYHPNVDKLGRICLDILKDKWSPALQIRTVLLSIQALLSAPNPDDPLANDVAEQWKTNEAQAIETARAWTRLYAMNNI
Test: microscale thermophoresis
Assay type: binding
Conditions: PBS pH 7.4, 0.05% Tween20; labelled protein; MST-on time 9-10 s; n = 3

COC(=O)c1cc2c(cn1)[nH]c1ccc(O)cc12 [Variabine B] gave a Kd of 35.3 ± 6.3 µM.
